# Values joined by “and” are separate entries in the source; they are usually repeats but may differ in a detail not shown here. Equal entries are not always repeated. Active and inactive are the calls of the source.
# What was measured:
# [1] = target: T1, Heat shock factor protein 1 (Mus musculus, UniProt P38532); experiment: HSF1 potentiators in luciferase reporter cells, confirmation, cell-based, NIH3T3, luminescence, dose retest (AID 435004); format: functional;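 note: stress induced by proteasome inhibitor MG132 added 30 min after compound; luciferase reporter driven by HSF1 response element in NIH3T3 cells; actives raise luminescence as potentiators of the MG132 stress response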
# T1 sequence (P38532 whole entry): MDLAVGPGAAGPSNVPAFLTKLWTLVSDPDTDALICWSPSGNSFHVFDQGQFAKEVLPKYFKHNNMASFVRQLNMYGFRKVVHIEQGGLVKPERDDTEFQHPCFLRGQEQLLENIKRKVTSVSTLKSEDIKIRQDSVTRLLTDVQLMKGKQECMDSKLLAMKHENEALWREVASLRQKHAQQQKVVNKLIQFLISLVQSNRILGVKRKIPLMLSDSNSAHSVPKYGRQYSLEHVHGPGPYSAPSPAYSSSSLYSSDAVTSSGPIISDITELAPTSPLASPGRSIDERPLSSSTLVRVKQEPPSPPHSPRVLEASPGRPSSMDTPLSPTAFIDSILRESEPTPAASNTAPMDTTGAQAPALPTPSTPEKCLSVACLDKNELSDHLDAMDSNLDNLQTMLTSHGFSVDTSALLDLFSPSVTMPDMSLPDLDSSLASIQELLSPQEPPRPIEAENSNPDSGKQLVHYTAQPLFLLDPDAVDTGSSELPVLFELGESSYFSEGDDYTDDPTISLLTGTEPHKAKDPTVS
# H9c2 = experiment: cells; format: functional, cell-based; settings: Rattus norvegicus, H9c2, Myocardium;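 note: confirmatory concentration-response retest of ultra-high-throughput screening hits for modulation of myocardial damage; cell death induced by hydrogen peroxide oxidative stress; compound pretreatment for 60 min then peroxide exposure for 2 h; potency is for protecting the cells against peroxide damage rather than for killing them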
# Cytochrome P450 2D6 = Cytochrome P450 2D6 (Homo sapiens, UniProt P10635);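 note: CYP2D6 member of a cytochrome P450 panel assay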
# Sequence of Cytochrome P450 2D6 (P10635 whole entry): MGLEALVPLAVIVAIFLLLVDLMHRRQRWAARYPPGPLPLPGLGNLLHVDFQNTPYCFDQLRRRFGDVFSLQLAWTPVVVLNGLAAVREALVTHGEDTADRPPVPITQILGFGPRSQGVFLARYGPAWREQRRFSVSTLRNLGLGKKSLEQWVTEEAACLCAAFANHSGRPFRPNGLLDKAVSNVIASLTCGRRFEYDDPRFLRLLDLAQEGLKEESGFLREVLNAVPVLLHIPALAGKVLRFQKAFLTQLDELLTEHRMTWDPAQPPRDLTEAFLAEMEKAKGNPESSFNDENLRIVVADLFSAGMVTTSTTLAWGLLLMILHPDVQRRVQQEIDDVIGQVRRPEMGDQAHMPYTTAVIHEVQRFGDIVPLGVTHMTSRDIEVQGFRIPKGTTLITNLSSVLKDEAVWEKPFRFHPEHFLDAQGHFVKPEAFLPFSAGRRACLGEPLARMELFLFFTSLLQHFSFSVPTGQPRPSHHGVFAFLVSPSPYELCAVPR
# Cytochrome P450 1A2 = target: T2, Cytochrome P450 1A2 (Homo sapiens, UniProt P05177);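 note: PubChem cytochrome P450 panel assay, CYP1A2 panel member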
# T2 sequence (P05177 whole entry): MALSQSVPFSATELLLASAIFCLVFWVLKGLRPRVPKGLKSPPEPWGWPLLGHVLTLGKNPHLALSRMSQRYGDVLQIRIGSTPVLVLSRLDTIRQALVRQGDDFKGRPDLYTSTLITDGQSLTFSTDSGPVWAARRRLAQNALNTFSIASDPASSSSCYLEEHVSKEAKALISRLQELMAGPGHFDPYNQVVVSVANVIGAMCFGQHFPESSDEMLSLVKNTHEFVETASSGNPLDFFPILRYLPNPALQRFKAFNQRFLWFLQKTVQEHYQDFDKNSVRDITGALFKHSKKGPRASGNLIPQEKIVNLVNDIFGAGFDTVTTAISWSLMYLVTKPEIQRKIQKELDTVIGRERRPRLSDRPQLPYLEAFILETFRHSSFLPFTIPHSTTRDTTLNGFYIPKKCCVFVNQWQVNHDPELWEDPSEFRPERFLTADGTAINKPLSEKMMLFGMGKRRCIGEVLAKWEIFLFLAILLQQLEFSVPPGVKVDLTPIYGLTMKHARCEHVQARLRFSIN
# Cytochrome P450 2C19 = Cytochrome P450 2C19 (Homo sapiens, UniProt P33261); experiment: Cytochrome panel assay with activity outcomes. Panel member name: p450-cyp2c19 Compounds with AC50 equal or less than 10 uM are considered active; format: functional
# Sequence of Cytochrome P450 2C19 (P33261 whole entry): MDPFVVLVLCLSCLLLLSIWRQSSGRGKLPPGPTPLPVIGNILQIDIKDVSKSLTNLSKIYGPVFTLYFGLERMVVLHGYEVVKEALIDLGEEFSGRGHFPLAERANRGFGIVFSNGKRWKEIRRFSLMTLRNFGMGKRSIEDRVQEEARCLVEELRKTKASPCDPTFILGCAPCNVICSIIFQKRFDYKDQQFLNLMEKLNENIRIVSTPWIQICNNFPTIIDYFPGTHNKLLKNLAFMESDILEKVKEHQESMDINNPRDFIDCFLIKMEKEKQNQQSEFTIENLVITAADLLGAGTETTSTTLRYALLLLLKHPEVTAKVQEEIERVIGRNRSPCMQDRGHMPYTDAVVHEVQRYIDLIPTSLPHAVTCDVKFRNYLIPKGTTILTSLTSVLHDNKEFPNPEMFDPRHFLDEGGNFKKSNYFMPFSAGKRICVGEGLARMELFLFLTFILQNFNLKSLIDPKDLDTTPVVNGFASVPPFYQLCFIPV
# [2] = Luminescence Cell-Based Dose Confirmation HTS to Identify Activators of 5'UTR Stem-Loop Driven Alpha-Synuclein mRNA Translation in H4 Neuroglioblastoma Cells. [Related pubchem assays: 1829 (Project Summary), 1814 (Primary HTS)]; format: functional
# [3] = Luminescence Cell-Based Dose Response HTS to Identify Activators of Luciferase Translation or Activity in H4 […] Cells. [Related pubchem assays: 1829 (Project Summary), 1814 (Primary HTS)]; format: functional
# H4 = experiment: Luminescence Cell-Based Dose Response HTS to Identify Activators of 5'UTR Stem-Loop Driven Prion Protein mRNA Translation in H4 Neuroglioblastoma Cells. [Related pubchem assays: 1829 (Project Summary), 1814 (Primary HTS)]; format: functional; settings: Homo sapiens
# Cytochrome P450 3A4 = Cytochrome P450 3A4 (Homo sapiens, UniProt P08684);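 note: CYP3A4 tested as one member of a cytochrome P450 panel screen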
# Sequence of Cytochrome P450 3A4 (P08684 whole entry): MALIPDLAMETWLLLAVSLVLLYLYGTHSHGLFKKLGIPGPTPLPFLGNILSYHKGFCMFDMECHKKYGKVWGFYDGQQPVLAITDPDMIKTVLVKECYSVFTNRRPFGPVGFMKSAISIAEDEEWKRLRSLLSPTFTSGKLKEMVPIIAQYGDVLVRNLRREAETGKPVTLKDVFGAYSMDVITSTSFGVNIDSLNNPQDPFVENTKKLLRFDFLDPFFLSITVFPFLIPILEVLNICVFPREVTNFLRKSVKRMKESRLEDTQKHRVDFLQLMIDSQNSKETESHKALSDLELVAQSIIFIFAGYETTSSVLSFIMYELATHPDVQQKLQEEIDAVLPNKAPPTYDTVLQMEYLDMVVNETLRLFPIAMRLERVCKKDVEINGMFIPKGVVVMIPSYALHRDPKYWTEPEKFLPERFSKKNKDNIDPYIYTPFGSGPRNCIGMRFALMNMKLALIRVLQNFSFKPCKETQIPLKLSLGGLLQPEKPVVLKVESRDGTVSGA
smiles,measurement,setting,value
Cc1ccc(/C=C/C(=O)Nc2ccc(S(=O)(=O)Nc3cc(C)nc(C)n3)cc2)cc1,EC50,[1],> 260 µM (inactive)
Cc1nc(SCC(=O)N2CCN(c3ccccc3)CC2)c2oc3ccccc3c2n1,IC50,H9c2,> 79 µM (inactive)
COc1ncc2nc(-c3cccc(C#N)c3)c(=O)n(CCC#N)c2n1,AC50,Cytochrome P450 2D6,15.8 µM (inconclusive)
same,AC50,Cytochrome P450 1A2,20 µM (inconclusive)
C/C(=N\O)c1cccc[n+]1Cc1ccccc1,AC50,Cytochrome P450 2C19; read-out: AC50,0.1 µM (inconclusive)
same,AC50,Cytochrome P450 2D6,3.98 µM (inconclusive)
CC(C)(C)c1ccc(C(=O)NC(=S)Nn2cnnc2)cc1,EC50,[2],> 120 µM (not active)
same,EC50,[3],69.9 µM (active)
same,EC50,H4,30.1 µM (active)
CC(C)C(=O)Nc1ccc(NC(=O)c2cccnc2)cn1,AC50,Cytochrome P450 2C19; read-out: AC50,7.08 µM (inconclusive)
CN1CCN(c2ncncc2-c2cccnc2)CC1,AC50,Cytochrome P450 2D6,2.51 µM (inconclusive)
same,AC50,Cytochrome P450 1A2,25.1 µM (inconclusive)
same,AC50,Cytochrome P450 3A4,12.6 µM (inconclusive)
O=[N+]([O-])c1ccc(S(=O)(=O)Cc2ccccc2)c2nonc12,AC50,Cytochrome P450 2D6,6.31 µM (inconclusive)
CCOC(=O)c1cnc(-c2ccccc2)nc1Oc1ccc(C)cc1,EC50,[1],> 260 µM (inactive)
CN1CCN(CC(=O)N2c3ccccc3Sc3cc4ccccc4cc32)CC1,AC50,Cytochrome P450 2D6,3.16 µM (inconclusive)
same,AC50,Cytochrome P450 3A4,3.98 µM (inconclusive)
CC(C)c1ccc(N2C(=O)[C@@H]3Cc4ccccc4CN3C2=O)cc1,EC50,[2],> 120 µM (not active)
same,EC50,[3],45 µM (active)
same,EC50,H4,> 120 µM (not active)
Cc1cc(SCC(=O)NCCN2C(=O)CSC2=O)nc2ccccc12,EC50,[2],> 120 µM (not active)
same,EC50,[3],> 120 µM (not active)
same,EC50,H4,> 120 µM (not active)
Cc1nn(CCOc2ccccc2)c(=O)n1-c1c(F)cccc1F,EC50,[2],15.3 µM (active)
same,EC50,[3],> 120 µM (not active)
same,EC50,H4,32.2 µM (active)
COCCNc1ncnc2ccc(-c3cccc(OC)c3)cc12,AC50,Cytochrome P450 2C19; read-out: AC50,2.51 µM (inconclusive)
same,AC50,Cytochrome P450 2D6,39.8 µM (inconclusive)
CC[N+](C)(CC)CCN1C(=O)c2ccccc2S1(=O)=O,AC50,Cytochrome P450 2C19,inconclusive
COC(=O)c1ccccc1S(=O)(=O)N(Cc1ccco1)Cc1cc2cc(OC)ccc2nc1O,IC50,H9c2,> 79 µM (inactive)
COC(=O)c1cc(S(=O)(=O)N2CCN(c3ccc([N+](=O)[O-])cc3)CC2)c[nH]1,EC50,[1],> 260 µM (inactive)
COc1cc2[nH]c(C(=O)Nc3ccc(F)cc3)cc2c(OC)c1OC,EC50,[2],> 120 µM (not active)
same,EC50,[3],9.27 µM (active)
same,EC50,H4,> 120 µM (not active)
COc1ccc2[nH]cc(CCNc3nc(-c4ccccc4CN(C)C)nc4ccccc34)c2c1,AC50,Cytochrome P450 2D6,31.6 µM (inconclusive)
same,AC50,Cytochrome P450 1A2,25.1 µM (inconclusive)
same,AC50,Cytochrome P450 3A4,2 µM (inconclusive)
CC(OC(=O)/C=C/c1ccc2ccccc2n1)C(=O)NCc1ccccc1 (configuration not stated),EC50,[1],13.3 µM (active)
CC(C)C(=O)N1CCN(c2ccccc2NC(=O)c2cccc(Cl)c2)CC1,AC50,Cytochrome P450 2D6,15.8 µM (inconclusive)
same,AC50,Cytochrome P450 1A2,20 µM (inconclusive)
same,AC50,Cytochrome P450 3A4,12.6 µM (inconclusive)
COc1cc2c(cc1NC(=O)CSc1nccn1C)oc1ccccc12,EC50,[2],13 µM (active)
same,EC50,[3],7.9 µM (active)
same,EC50,H4,27.6 µM (active)
CCn1ncc2c1C(=O)NC1c3ccccc3C(=O)N21 (configuration not stated),IC50,H9c2,32 µM (inactive)
CC(C)NC(=O)N1CC2(CCN(C(=O)c3ccco3)CC2)C1,AC50,Cytochrome P450 2D6,12.6 µM (inconclusive)
COc1cccc(-c2ccc3ncnc(NCCNC(C)=O)c3c2)c1,AC50,Cytochrome P450 2D6,39.8 µM (inconclusive)
CCOc1ccc(-n2cc(C(=O)N3CCC(C)CC3)c3cc(OC)c(OC)cc3c2=O)cc1,EC50,[1],> 260 µM (inactive)
C=CCN1C(=O)NC(=O)/C(=C(/CC)Nc2ccc3c(c2)CCC3)C1=O,EC50,[1],> 260 µM (inactive)
O=C(CSc1nn(-c2ccc(F)cc2)c(=S)s1)N1CCN(C(=O)c2ccco2)CC1,EC50,[1],> 260 µM (inactive)
Cc1cc(NC(=O)NC(=O)c2ccccc2)no1,EC50,[2],3.66 µM (active)
same,EC50,[3],7.68 µM (active)
same,EC50,H4,42.3 µM (inconclusive)
O=C(CSC1CC(=O)N(CC(c2ccccc2)c2ccccc2)C1=O)Nc1ccc(Cl)cc1 (configuration not stated),AC50,Cytochrome P450 2D6,2 µM (inconclusive)
same,AC50,Cytochrome P450 1A2,35.5 µM (inconclusive)
COc1cccc(C2C(C(N)=O)=C(C)Nc3nc(-c4cccc(Cl)c4)nn32)c1 (configuration not stated),EC50,[1],71.9 µM (active)
CC1(C)Cc2nc(NCCN3CCOCC3)c(C#N)cc2CO1,EC50,[1],> 260 µM (inactive)
CC1SCC(=NOCc2ccccc2)CS1 (configuration not stated),EC50,[2],14.5 µM (active)
same,EC50,[3],17.7 µM (active)
same,EC50,H4,18.2 µM (active)
Cc1cccc(NC(=O)CSc2nc(O)c3c(C)cc(C)nc3n2)c1,AC50,Cytochrome P450 2D6,15.8 µM (inconclusive)
Cc1ccc(S(=O)(=O)N(C)C)cc1NC(=O)COC(=O)c1c(C)noc1C,EC50,[1],> 260 µM (inactive)
Cn1c(C(=O)NCc2cccs2)cc2c(=O)n(C)c3ccccc3c21,IC50,H9c2,> 79 µM (inactive)
COc1cccc(NC(=O)CN(C)C(=O)Cc2nnc(O)c3ccccc23)c1,IC50,H9c2,> 79 µM (inactive)
CCCN1CCC(=NNc2ccc(C(=O)O)cc2)CC1,EC50,[2],7.27 µM (active)
same,EC50,[3],30.4 µM (active)
same,EC50,H4,10.7 µM (active)
COc1ccc(-c2cn3c(C)c(C(=O)NC(C)(C)C)sc3n2)cc1,EC50,[2],1.06 µM (active)
same,EC50,[3],31.5 µM (active)
same,EC50,H4,> 120 µM (not active)
Cc1ccc(C(=O)NC2CCCN(c3ccc(C(F)(F)F)cn3)C2)cn1 (configuration not stated),EC50,[1],> 260 µM (inactive)
O=C(/C=C/c1ccc(Cl)cc1)NCCN1CCOCC1,AC50,Cytochrome P450 2C19,inconclusive
COC(=O)c1ccc(N(CC(=O)NC2CCCCC2)C(=O)CNC(=O)c2ccco2)cc1,EC50,[1],> 260 µM (inactive)
CN(CC(=O)Nc1ccccc1Br)C(=O)Cn1[nH]c(=O)c2ccccc2c1=O,IC50,H9c2,> 79 µM (inactive)
CC(OC(=O)CCc1nc(O)c2ccccc2n1)C(=O)Nc1ccc2c(c1)OCO2 (configuration not stated),IC50,H9c2,39.1 µM (inactive)
CS(=O)(=O)Nc1ccc(-c2ccc3nccn3c2)cc1,IC50,H9c2,> 79 µM (inactive)
COc1ccc(C=CC(=O)c2ccc3cc(OC)c(OC)cc3c2)cc1OC,IC50,H9c2,> 79 µM (inactive)
O=C1[C@H]2[C@@H](c3ccc(C(F)(F)F)cc3)N[C@]3(CCCN(Cc4ccc(F)cc4)C3=O)[C@H]2C(=O)N1Cc1ccccc1,IC50,H9c2,> 79 µM (inactive)
COc1ccccc1NC(=O)COc1ccc(/C=N/NC(=O)c2cccnc2)cc1,IC50,H9c2,17.2 µM (active)
COc1cc(/C=N/N2C(=O)c3ccccc3NC2(C)c2cccc([N+](=O)[O-])c2)cc(Br)c1O (configuration not stated),EC50,[1],34.1 µM (active)
O=C(Nc1ccccc1)N[C@H]1C[C@H](C(=O)O)Nc2cc(Cl)cc(Cl)c21,AC50,Cytochrome P450 2C19; read-out: AC50,25.1 µM (inconclusive)
same,AC50,Cytochrome P450 1A2,39.8 µM (inconclusive)
same,AC50,Cytochrome P450 3A4,25.1 µM (inconclusive)
O=C1/C(=C\c2ccc(Br)o2)S/C(=N/c2ccccc2)N1c1ccccc1,AC50,Cytochrome P450 2C19; read-out: AC50,7.94 µM (inconclusive)
O=[N+]([O-])c1ccc(N/N=C2\CC3CC=CC23)cc1 (configuration not stated),EC50,[2],15.2 µM (active)
same,EC50,[3],13.2 µM (active)
same,EC50,H4,24.3 µM (active)
COC(=O)c1ccc(/N=C/c2c(C(F)(F)F)n[nH]c2O)cc1,EC50,[2],> 120 µM (not active)
same,EC50,[3],> 120 µM (not active)
same,EC50,H4,> 120 µM (not active)
O=S(=O)(N/N=C\c1cccn1-c1ccccc1)c1ccc2ccccc2c1,AC50,Cytochrome P450 2C19; read-out: AC50,0.794 µM (inconclusive)
O=[N+]([O-])c1cccc(/C=N/N2CCN(Cc3ccccc3)CC2)c1,EC50,[2],14.7 µM (active)
same,EC50,[3],20.8 µM (active)
same,EC50,H4,20.2 µM (active)
N[C@@H](CSS(=O)(=O)O)C(=O)O,AC50,Cytochrome P450 2C19; read-out: AC50,7.94 µM (inconclusive)
same,AC50,Cytochrome P450 1A2,39.8 µM (inconclusive)
CCN(CC)CCNC(=O)c1cc(S(C)(=O)=O)ccc1OC [TIAPRIDE],AC50,Cytochrome P450 2D6,7.94 µM (inconclusive) and 31.6 µM (inconclusive)
